Data as given in US11884658B1, “1-cyclopropyl-6-fluoro-4-oxo-7-(4-((2-thioxobenzo[d]thiazol-3(2H)-yl)methyl)piperazin-1-yl)-1,4-dihydroquinoline-3-carboxylic acid as an antimicrobial compound” (KING FAISAL UNIVERSITY, priority 2023, dated 2024).

What was measured:
Type in all cases: cell-based
Escherichia coli = test: agar plate disc-diffusion, inhibition zone; conditions: Gram negative; for zone of inhibition at 10000 ppm: A = concentration of comp. = 10,000 ppm; for zone of inhibition at 30000 ppm: B = concentration of comp. = 30000 ppm; for zone of inhibition at 50000 ppm: C = concentration of comp. = 50,000 ppm
Experimental: (§1) The antimicrobial properties of the synthesized compound was studied by the method of agar plate disc-diffusion. Sterilized filter papers (6 mm in diameter) were wetted with 10 μL of a solution of 1-cyclopropyl-6-fluoro-4-oxo-7-(4-((2-thioxobenzo[d]thiazol-3(2H)-yl)methyl)piperazin-1-yl)-1,4-dihydroquinoline-3-carboxylic acid (4) to be tested, containing 10 mg/mL in DMSO and the discs were allowed to air dry. The discs were then placed onto the surface of agar plates (nutrient agar for bacteria) seeded with the test organism. Each plate contained 15 mL of the agar medium, previously seeded with 0.2 mL of the broth culture of each organism pregrown for 18 h. The inhibition zones were measured in […]. Discs impregnated with DMSO were used as a control, and its inhibition zone was subtracted from the tested compound actual inhibition zone.

Staphylococcus aureus = test: agar plate disc-diffusion, inhibition zone; conditions: Gram positive; for zone of inhibition at 10000 ppm: A = concentration of comp. = 10,000 ppm; for zone of inhibition at 30000 ppm: B = concentration of comp. = 30000 ppm; for zone of inhibition at 50000 ppm: C = concentration of comp. = 50,000 ppm
Experimental: as §1

Bacillus Cereus = test: agar plate disc-diffusion, inhibition zone; conditions: Gram positive; for zone of inhibition at 10000 ppm: A = concentration of comp. = 10,000 ppm; for zone of inhibition at 30000 ppm: B = concentration of comp. = 30000 ppm; for zone of inhibition at 50000 ppm: C = concentration of comp. = 50,000 ppm
Experimental: as §1

Pseudomonas aeruginosa = test: agar plate disc-diffusion, inhibition zone; conditions: Gram negative; for zone of inhibition at 10000 ppm: A = concentration of comp. = 10,000 ppm; for zone of inhibition at 30000 ppm: B = concentration of comp. = 30000 ppm; for zone of inhibition at 50000 ppm: C = concentration of comp. = 50,000 ppm
Experimental: as §1

[1] = system: gram positive and gram-negative bacterial strains; test: antibacterial activity screen, overall statement; conditions: Bacillus cereus, Staphylococcus aureus, Pseudomonas aeruginosa and Escherichia coli
Experimental: as §1

| Structure (SMILES) | zone of inhibition at 10000 ppm (Escherichia coli) | zone of inhibition at 30000 ppm (Escherichia coli) | zone of inhibition at 50000 ppm (Escherichia coli) | zone of inhibition at 10000 ppm (Staphylococcus aureus) | zone of inhibition at 30000 ppm (Staphylococcus aureus) | zone of inhibition at 50000 ppm (Staphylococcus aureus) | zone of inhibition at 10000 ppm (Bacillus Cereus) | zone of inhibition at 30000 ppm (Bacillus Cereus) | zone of inhibition at 50000 ppm (Bacillus Cereus) | zone of inhibition at 10000 ppm (Pseudomonas aeruginosa) | zone of inhibition at 30000 ppm (Pseudomonas aeruginosa) | zone of inhibition at 50000 ppm (Pseudomonas aeruginosa) | antibacterial activities (in words) [1] |
| --- | --- | --- | --- | --- | --- | --- | --- | --- | --- | --- | --- | --- | --- |
| O=C(O)c1cn(C2CC2)c2cc(N3CCNCC3)c(F)cc2c1=O [Cip., ciprofloxacin, reference compound] | 30 mm | 39 mm | 60 mm | 43 mm | 44 mm | 53 mm | 29 mm | 30 mm | 42 mm | 29 mm | 30 mm | 53 mm | – |
| O=C(O)c1cn(C2CC2)c2cc(N3CCN(Cn4c(=S)sc5ccccc54)CC3)c(F)cc2c1=O [Compound 4, 1-cyclopropyl-6-fluoro-4-oxo-7-(4-((2-thioxobenzo[d]thiazol-3(2H)-yl)methyl)piperazin-1-yl)-1,4-dihydroquinoline-3-carboxylic acid] | 39 mm | 44 mm | 49 mm | 10 mm | 17 mm | 22 mm | 35 mm | 39 mm | 44 mm | 24 mm | 31 mm | 39 mm | good antibacterial activities |
